The results in this text go back to patent US20240374545A1, “DIAGNOSIS OF IMMUNITY REDUCTION THROUGH INTESTINAL MICROFLORA ANALYSIS OF STOMACH CANCER PATIENTS, AND THERAGNOSTIC COMPOSITION USING INTESTINAL MICROFLORA” (THE CATHOLIC UNIVERSITY OF KOREA INDUSTRY-ACADEMIC …, priority 2022, published 2024).

Assay [1] concerns AGS cell line, a stomach cancer cell line. Description: Apoptosis of AGS stomach cancer cell line by Annexin/PI flow cytometry (SD217). Format: cell-based. The settings on record: 48 hours. As for the experimental part: It was determined whether SD217, a novel compound of the present invention, may specifically kill stomach cancer cells. Specifically, 2×10^5 of a AGS cell line, a stomach cancer cell line, was inoculated into a 6-well plate and then treated with SD217, the novel compound of the present invention, at a concentration of 0.2 mM after overnight, and after 48 hours, stained with Annexin/PI, and then apoptotic cells were analyzed by flow cytometry. As a control group, a Vehicle group treated with the same amount of PBS was used. Thereafter, early apoptotic cells were confirmed, a ratio of late apoptotic/necrotic cells was confirmed, and thus death of the stomach cancer cell line was confirmed.
It was confirmed whether SD217, the novel compound of the present invention, induced early and late apoptosis in stomach cancer cell line. Specifically, 2×10^5 of a AGS cell line, a stomach cancer cell line, was inoculated into a 6-well plate and then treated with SD217, the novel compound of the present invention, at concentrations of 1, 5, 10, 20, and 50 mM after overnight, and after 48 hours, stained with Annexin/PI, and then apoptotic cells were analyzed by flow cytometry.
A general note: Flow cytometry measures light scatter and fluorescence of single cells or particles in a stream.

For assay [2], the system named is Programmed Death-Ligand 1 (PD-L1). Description: PD-L1 positive cells in AGS stomach cancer cell line by flow cytometry. The settings on record: AGS cells, 0.2, 0.5, and 1 mM, compared to the Vehicle group (FIG. 2). Format: cell-based. The text has this: It was intended to confirm the expression of a Programmed Death-Ligand 1 (PD-L1) protein, an immunity reduction marker of stomach cancer cells, by SD217, a novel compound of the present invention. The PD-L1 protein was a surface protein of stomach cancer cells, and the PD-L1 is a protein that evaded the immune responses of T cells by binding to programmed cell death-1 (PD-1), a surface protein of activated T cells. […] Specifically, in the same manner as in Example 1, AGS cells, a stomach cancer cell line, were treated with 0.2, 0.5, and 1 mM of SD217 and reacted. Thereafter, PD-L1 positive cells were analyzed by flow cytometry. As a control group, a Vehicle group treated with PBS was used, and as a positive control group, 1 mM Metformin was used.

The subject of assay [3] is AGS cell line, a stomach cancer cell line. Briefly: Stomach cancer transplant animal model (AGS subcutaneous in NSG mice), tumor growth. The assay is classed as in vivo. The following applies: NSG mice with AGS tumor, 50 mg/kg orally daily, compared to the Vehicle group (FIG. 3). How it is done: It was confirmed whether SD217, the novel compound of the present invention, inhibited tumor growth. Specifically, a stomach cancer transplant animal model was fabricated by subcutaneously injecting 5×10^6 of the AGS cell line, a stomach cancer cell line, into 6-8-week-old immunodeficient mice (NSG). Thereafter, SD217 was orally administered daily at a concentration of 50 mg/kg. After AGS cell injection and SD217 administration, tumor size was measured three times weekly using calipers, and tumor volume was calculated by substituting the lengths in long axis and short axis of the tumor into Equation 1 below. As a control group, a Vehicle group injected with the same amount of PBS was used.

Setting [4] is: AGS cells, 1, 5, 10, 20, and 50 mM, compared to the Vehicle group (FIG. 4).

With `N=C(N)NC(=N)Nc1ccc(F)cc1F` [SD217, 1-(2,4-difluorophenyl) biguanide], the apoptosis result in assay [1] (AGS cells, 0.2 mM, Annexin/PI, compared to the Vehicle group (FIG. 1)) is recorded as “significantly increased”. In assay [1] (setting [4]), the early apoptosis entry is reported as “induced in a concentration-dependent manner” and the late apoptosis result is recorded as “induced in a concentration-dependent manner”. Further, in assay [2], the “number of PD-L1 positive cells” value is “significantly reduced”. Further, in assay [3], the tumor growth entry is “significantly inhibited” and the tumor volume entry is “significantly reduced”.
